According to ChEMBL document CHEMBL1201862, “PubChem BioAssay data set” (2004):
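Compound exposure: 48 hours, 5 concentrations, 96-well plates. GI50 is the concentration that inhibits growth by half.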 Activity calls are given as the source filed them. No stated cut-off is given here; in the data, active = GI50 up to about 1.1 µM and inactive = higher.

How the values were obtained:
Assay in all cases: DTP human tumour cell line panel, 48 h
[1] = test system: U-251
[2] = test system: SR
[3] = test system: Malme-3M
[4] = test system: SK-MEL-28
[5] = test system: OVCAR-8
[6] = test system: NCI-H522
[7] = test system: LOX IMVI
[8] = test system: A549
[9] = test system: CAKI-1
[10] = test system: A498
[11] = test system: 786-0
[12] = test system: EKVX
[13] = test system: SF-295
[14] = test system: UO-31
[15] = test system: Hs-578T
[16] = test system: SW-620
[17] = test system: HCT-15
[18] = test system: SN12C
[19] = test system: MDA-N
[20] = test system: ACHN
[21] = test system: MDA-MB-435
[22] = test system: K562
[23] = test system: HCC 2998
[24] = test system: HOP-62
[25] = test system: OVCAR-4
[26] = test system: TK-10
[27] = test system: OVCAR-5
[28] = test system: MOLT-4
[29] = test system: NCI-H226
[30] = test system: OVCAR-3
[31] = test system: NCI/ADR-RES
[32] = test system: NCI-H23
[33] = test system: KM12
[34] = test system: HT-29
[35] = test system: SNB-75
[36] = test system: BT-549
[37] = test system: CCRF-CEM
[38] = test system: RXF 393
[39] = test system: SF-268
[40] = test system: HOP-92
[41] = test system: T47D
[42] = test system: M14
[43] = test system: SK-MEL-5
[44] = test system: NCI-H460
[45] = test system: UACC-257
[46] = test system: MDA-MB-231
[47] = test system: UACC-62
[48] = test system: DU-145
[49] = test system: HCT-116
[50] = test system: SNB-19
[51] = test system: SK-MEL-2
[52] = test system: PC-3
[53] = test system: IGROV-1
[54] = test system: SK-OV-3
[55] = test system: COLO 205
[56] = test system: HL-60
[57] = test system: MCF7
[58] = test system: SF-539
[59] = test system: RPMI-8226

SMILES: NC(CCc1ccccc1)(C(=O)O)c1ccccc1 (stereo not given)
- GI50 [1]: > 100 µM (inactive)
- GI50 [2]: > 100 µM (inactive)
- GI50 [3]: > 100 µM (inactive)
- GI50 [4]: > 100 µM (inactive)
- GI50 [5]: > 100 µM (inactive)
- GI50 [6]: > 100 µM (inactive)
- GI50 [7]: > 100 µM (inactive)
- GI50 [8]: > 100 µM (inactive)
- GI50 [9]: > 100 µM (inactive)
- GI50 [10]: > 100 µM (inactive)
- GI50 [11]: > 100 µM (inactive)
- GI50 [12]: > 100 µM (inactive)
- GI50 [13]: > 100 µM (inactive)
- GI50 [14]: > 100 µM (inactive)
- GI50 [15]: > 100 µM (inactive)
- GI50 [16]: > 100 µM (inactive)
- GI50 [17]: > 100 µM
- GI50 [18]: > 100 µM (inactive)
- GI50 [19]: > 100 µM (inactive)
- GI50 [20]: > 100 µM (inactive)
- GI50 [21]: > 100 µM (inactive)
- GI50 [22]: > 100 µM (inactive)
- GI50 [23]: > 100 µM (inactive)
- GI50 [24]: > 100 µM (inactive)
- GI50 [25]: > 100 µM (inactive)
- GI50 [26]: > 100 µM (inactive)
- GI50 [27]: > 100 µM (inactive)
- GI50 [28]: > 100 µM (inactive)
- GI50 [29]: > 100 µM (inactive)
- GI50 [30]: > 100 µM (inactive)
- GI50 [31]: > 100 µM (inactive)
- GI50 [32]: > 100 µM (inactive)
- GI50 [33]: > 100 µM (inactive)
- GI50 [34]: > 100 µM (inactive)
- GI50 [35]: > 100 µM (inactive)
- GI50 [36]: > 100 µM (inactive)
- GI50 [37]: > 100 µM (inactive)
- GI50 [38]: > 100 µM (inactive)
- GI50 [39]: > 100 µM (inactive)
- GI50 [40]: > 100 µM (inactive)
- GI50 [41]: > 100 µM (inactive)
- GI50 [42]: > 100 µM (inactive)
- GI50 [43]: > 100 µM (inactive)
- GI50 [44]: > 100 µM (inactive)
- GI50 [45]: > 100 µM (inactive)
- GI50 [46]: > 100 µM (inactive)
- GI50 [47]: > 100 µM (inactive)
- GI50 [48]: > 100 µM (inactive)
- GI50 [49]: > 100 µM (inactive)
- GI50 [50]: > 100 µM (inactive)
- GI50 [51]: > 100 µM (inactive)
- GI50 [52]: > 100 µM (inactive)
- GI50 [53]: > 100 µM (inactive)

SMILES: CC12CC(C/C1=N/O)C(C)(C)C2 (stereo not given)
- GI50 [1]: > 100 µM (inactive)
- GI50 [54]: > 100 µM (inactive)
- GI50 [55]: > 100 µM (inactive)
- GI50 [3]: > 100 µM (inactive)
- GI50 [4]: > 100 µM (inactive)
- GI50 [5]: > 100 µM (inactive)
- GI50 [56]: > 100 µM (inactive)
- GI50 [6]: > 100 µM (inactive)
- GI50 [8]: > 100 µM (inactive)
- GI50 [9]: > 100 µM (inactive)
- GI50 [10]: > 100 µM (inactive)
- GI50 [11]: > 100 µM (inactive)
- GI50 [12]: > 100 µM (inactive)
- GI50 [13]: > 100 µM (inactive)
- GI50 [14]: > 100 µM (inactive)
- GI50 [15]: > 100 µM (inactive)
- GI50 [16]: > 100 µM (inactive)
- GI50 [18]: > 100 µM (inactive)
- GI50 [19]: > 100 µM (inactive)
- GI50 [20]: > 100 µM (inactive)
- GI50 [21]: > 100 µM (inactive)
- GI50 [22]: > 100 µM (inactive)
- GI50 [23]: > 100 µM (inactive)
- GI50 [24]: > 100 µM (inactive)
- GI50 [25]: > 100 µM (inactive)
- GI50 [26]: > 100 µM (inactive)
- GI50 [27]: > 100 µM (inactive)
- GI50 [57]: > 100 µM (inactive)
- GI50 [29]: > 100 µM (inactive)
- GI50 [30]: > 100 µM (inactive)
- GI50 [32]: > 100 µM (inactive)
- GI50 [33]: > 100 µM (inactive)
- GI50 [34]: > 100 µM (inactive)
- GI50 [35]: > 100 µM (inactive)
- GI50 [36]: > 100 µM (inactive)
- GI50 [37]: > 100 µM (inactive)
- GI50 [38]: > 100 µM (inactive)
- GI50 [39]: > 100 µM (inactive)
- GI50 [40]: > 100 µM (inactive)
- GI50 [41]: > 100 µM (inactive)
- GI50 [42]: > 100 µM (inactive)
- GI50 [43]: > 100 µM (inactive)
- GI50 [44]: > 100 µM (inactive)
- GI50 [45]: > 100 µM (inactive)
- GI50 [46]: > 100 µM (inactive)
- GI50 [47]: > 100 µM (inactive)
- GI50 [48]: > 100 µM (inactive)
- GI50 [49]: > 100 µM (inactive)
- GI50 [50]: > 100 µM (inactive)
- GI50 [52]: > 100 µM (inactive)
- GI50 [53]: > 100 µM (inactive)
- GI50 [58]: > 100 µM (inactive)

SMILES: COc1ccc(/C=C/c2cc(OC)c(OC)c(OC)c2)cc1O[Si](C)(C)C(C)(C)C
- GI50 [1]: 3.11 µM (inactive)
- GI50 [54]: 52.7 µM (inactive)
- GI50 [55]: 15.7 µM (inactive)
- GI50 [4]: 25.1 µM (inactive)
- GI50 [5]: 2.74 µM (inactive)
- GI50 [6]: 1.87 µM (inactive)
- GI50 [8]: 14 µM (inactive)
- GI50 [9]: 41.9 µM (inactive)
- GI50 [10]: 12.7 µM (inactive)
- GI50 [11]: 10.4 µM (inactive)
- GI50 [12]: 5.81 µM (inactive)
- GI50 [13]: 26 µM (inactive)
- GI50 [14]: 7.31 µM (inactive)
- GI50 [15]: 3.15 µM (inactive)
- GI50 [16]: 2.91 µM (inactive)
- GI50 [17]: 3.33 µM
- GI50 [59]: 0.0494 µM (active)
- GI50 [18]: 7.16 µM (inactive)
- GI50 [19]: 2.27 µM (inactive)
- GI50 [20]: 7.87 µM (inactive)
- GI50 [21]: 2.26 µM (inactive)
- GI50 [23]: 43.5 µM (inactive)
- GI50 [24]: 5.93 µM (inactive)
- GI50 [25]: 19 µM (inactive)
- GI50 [26]: 27.1 µM (inactive)
- GI50 [27]: 33.5 µM (inactive)
- GI50 [57]: 3.6 µM (inactive)
- GI50 [28]: 4.22 µM (inactive)
- GI50 [29]: 5.19 µM (inactive)
- GI50 [32]: 5.62 µM (inactive)
- GI50 [34]: 37.9 µM (inactive)
- GI50 [35]: 2.03 µM (inactive)
- GI50 [36]: 12.1 µM (inactive)
- GI50 [38]: 3.09 µM (inactive)
- GI50 [39]: 15.8 µM (inactive)
- GI50 [40]: 15.6 µM (inactive)
- GI50 [41]: 18.7 µM (inactive)
- GI50 [42]: 5.97 µM (inactive)
- GI50 [43]: 1.98 µM (inactive)
- GI50 [44]: 4.15 µM (inactive)
- GI50 [45]: 10.4 µM (inactive)
- GI50 [46]: 5.02 µM (inactive)
- GI50 [47]: 3.35 µM (inactive)
- GI50 [48]: 7.11 µM (inactive)
- GI50 [49]: 2.77 µM (inactive)
- GI50 [50]: 3.44 µM (inactive)
- GI50 [51]: 7.8 µM (inactive)
- GI50 [52]: 4.72 µM (inactive)
- GI50 [53]: 8.95 µM (inactive)
- GI50 [58]: 2.32 µM (inactive)
